{"source": "patent US12239661B2", "about": "“Methods and compositions for treating undesired implanted tissue filler” (priority 2019, dated 2025)", "key": {"[1]": {"assay": "In vivo CT of filler nodule volume, density and 3D shape after test solutions 0-8 (Example 3)", "protocol": "One hour after filler injections (T=1 h), 1.5 mL of selected solutions (Table 5, solutions 0-8, test items, solution 0 is normal saline and not hyperosmotic) were injected each into 9 dermal filler nodules in the right flank (ventral area).\nA total of 7 CT-scans were performed at 1 h 15, 2 h, 4 h, 1 day (24 h), 3, 7 and 14 days after injection of the dermal filler. The clinical state of each animal is assessed once a week by body weight measurement and clinical observations.\nThe 10 SC injections of dermal filler on Day 0 were performed in the ventral area, (five nodules on each flank of the ventral area) for each pig. For each SC nodule, a theoretical volume of 500 μl was administered. One hour (±5 min) after injection of dermal filler, SC injection of the different solutions (prepared the day before) were performed into nine (9) nodules of dermal. For each SC nodule, a theoretical volume of 1.5 mL of test solution was administered.\nThe X-ray computed tomography acquisitions were performed with the Computed Tomography Scanner BrightSpeed 16 (General Electric). In order to measure the volume and the mean density and to visualize the 3D shape of the dermal filler (Radiesse® filler with or without test solution) injected, in vivo CT-scans were performed on Day 0: 1 h 15 (±10 min), 2 h (±15 min) and 4 h (±20 min), on Day 1 (24 h+1 h), Day 3, Day 7 and Day 14.\nDuring CT acquisition on Day 0, the pigs received an IM injection of anesthesia. The animals were maintained under anesthesia until the CT acquisition at T=2 h (2 h after dermal filler injection session). Between these CT acquisitions, the animals were under surveillance in the recovery room on a heating mat with fluidotherapy. At the end of the CT acquisition at T=2 h, the pigs received a tattoo around each injected site. During the CT acquisitions at T=4 h and on Days 1, 3, 7 and 14, pigs received an IM injection of anesthesia. For the CT-scans, animals were positioned in dorsal recumbency and acquisitions were centered on the injection sites. The parameters of the CT-scan are described in Table 5.\nThe CT acquisition was analyzed with the software Avizo version 9.2.0. The objective of this analysis was to assess the degradation over time of the dermal filler injected by SC route after injection of different test solutions.\nAn image segmentation processing was performed on each CT acquisition. First, a manual pre-segmentation was performed around each nodule in order to roughly isolate the voxels corresponding to dermal filler product, which defined a Region of Interest (ROI). Second, an automatic segmentation was applied on the previously defined ROI using a global grey level thresholding procedure.\nOn day 0, a farm pig received ten (10) SC injections of Radiesse® dermal filler 0.5 mL (ventral area) (10 nodules in total). One hour after filler injections (T=1 h), 1.5 mL of one of eight test hyperosmotic solutions (1-8 solutions, Table 5) was injected at an injection site. One injection site was untreated and one injection site was treated with normal saline (0.9% wt/v NaCl)."}, "[2]": {"assay": "Electron microscopy (SEM) of filler particles isolated from test sites (Example 1)", "protocol": "EM analysis is used, for example, to analyze morphology and the particle size distribution of Calcium Hydroxyapatite (CaHA) particles in tissue integrated particles. […] The biopsy material underwent an enzymatic digestion with protease (Trypsin without EDTA, for […], at 37° C.) after fixation in 10% neutral buffered formalin (NBF). Digested sample was centrifuged, and microscopy samples of the supernatant as well as the pellet were prepared and subjected to EM analysis at room temperature.\nSamples were analyzed using a Scanning Electron Microscope (SEM) (Phenom Pure G3, ThermoFisher, with Phenom Pro Suite application system, ImageJ (version 1.51j8) software and OriginPro 2018G (64-bit) SR1 b9.5.1.195 software for analysis and data processing). To evaluate the changes in CaHA microparticle characteristics the samples were analyzed with the Scanning Electron Microscopy (SEM) and evaluated for morphology as well as for the size and shape of the material. Statistical analysis of particle size distribution (PSD) would show changes of the material.\nSEM images were taken from three fractions per sample to determine the particle- and volume-weighted size distributions. Up to 400 SEM images per fraction were taken at a magnification of ×500 and further processed by automated image analyzing software ImageJ (version 1.51j8). Image processing took place for every fraction image to determine selected parameters. e.g., Feret diameter and aspect ratio (D-ratio)."}, "[3]": {"assay": "Quantitative histomorphometric analysis of injection sites (Example 1)", "type": "in vivo, Swine (Sus scrofa domesticus)", "details": "injected area, day 7, mean", "protocol": "Histomorphometric analysis was conducted on the 31 sections. Each section was analyzed with a color image analyzing system (Tribvn, France, CALOPIX version 3.2.0) to perform a semi-automatic analysis.\nA Test Area was defined in a limited area where the print of the granules of the associated material was clear. This area was defined to evaluate the average area and diameter of each microsphere. A Test Area had to contain between 100 and 300 clearly defined granules to be considered as representative. FIG. 2 illustrates a Test Area in a section.\nThe injected area was the entire area where material was detected on the slide. The Test Area was part of the injected area.\nQuantitative measurements were performed either in the Test Area or in the entire injected area. […]\nImplant Area (μm^2) (Test Area): the surface area of granules measured in the Test Area (including any Lacunae Area).\nImplant Area (mm^2) (Injected Area): the surface of granules was measured in the entire injected area (including any Lacunae Area). […]\nLacunae Area (mm^2) (Injected Area): the surface of the “Lacunae” Area was measured as defined by the optically empty spaces corresponding to merged granules (no distinct limits between several granules)."}, "[4]": {"assay": "Semi-quantitative histopathologic analysis of injection sites (Example 1)", "details": "mean score, day 7", "protocol": "After complete fixation in 10% NBF and micro-CT analysis, the 30 test sites and the TO site, were cut into five blocks. The blocks were decalcified for 48 hours with formic acid and then dehydrated in alcohol solutions of increasing concentration, cleared in xylene and embedded in paraffin. […] Finally, the blocks were placed in HCl for 15 min and the blocks could then be cut to obtain slides for analysis.\nThe section was stained with safranin-hematoxylin-cosin (SHE). The same procedure was used for the preparation of the TO site used for structural characterization and evaluation of the degradation.\nQualitative and semi-quantitative histopathologic evaluation of the local tissue effects and the inflammatory response at injection sites was conducted according using standard methods.\nEvaluation of local tissue effects was based on the qualitative and semi-quantitative histopathologic evaluation: mean score comparison of the semi-quantitative parameters and comparison of the qualitative histopathologic findings."}, "[5]": {"details": "Example 3, mean, listed as Normal Saline (sol 0)"}, "[6]": {"details": "particle size distribution by EM, day 7"}}}
{"smiles": "[Cl-].[Na+]", "note": "[sol 0, Sodium chloride]", "values": [{"measurement": "Change in Volume as percent of Injected Volume, Day 14/15", "setting": "[1]; Example 3 (Day 14), mean, listed as Normal Saline (sol 0)", "result": 187.72, "unit": "%"}, {"measurement": "Change in Volume as percent of Injected Volume, Day 0 + 1 h 15", "setting": "[1]; Example 3, mean, 1.5 mL solution into 500 μl nodule, listed as Normal Saline (sol 0)", "result": 155.02, "unit": "%"}, {"measurement": "Change in Volume as percent of Injected Volume, Day 0 + 2 h", "setting": "[1]; [5]", "result": 159.42, "unit": "%"}, {"measurement": "Change in Volume as percent of Injected Volume, Day 0 + 4 h", "setting": "[1]; [5]", "result": 182.97, "unit": "%"}, {"measurement": "Change in Volume as percent of Injected Volume, Day 1", "setting": "[1]; [5]", "result": 209.66, "unit": "%"}, {"measurement": "Change in Volume as percent of Injected Volume, Day 3", "setting": "[1]; [5]", "result": 215.48, "unit": "%"}, {"measurement": "Change in Volume as percent of Injected Volume, Day 7", "setting": "[1]; [5]", "result": 212.85, "unit": "%"}, {"measurement": "effect on volume at the filler injection site", "setting": "[1]; after 7 and 14 days, vs untreated, listed as normal saline", "result": "does not produce significant decreased volume"}, {"measurement": "particle degradation (change in particle size or surfaces) by EM", "setting": "[2]; day 7", "result": "no indication of particle degradation"}, {"measurement": "Mean diameter", "setting": "[2]; filler particles by EM, seven days after filler injection", "result": 28.8, "unit": "μm"}, {"measurement": "25-45 μm", "setting": "[2]; [6]", "result": 93.2, "unit": "wt %"}, {"measurement": "<25 μm", "setting": "[2]; [6]", "result": 1.4, "unit": "wt %"}, {"measurement": ">45 μm", "setting": "[2]; [6]", "result": 5.4, "unit": "wt %"}, {"measurement": "D-ratio", "setting": "[2]; shape index, 1=round, EM, day 7", "result": 0.8}, {"measurement": "Implant area", "setting": "[3]", "result": 19.2, "unit": "mm^2"}, {"measurement": "AM Degradation", "setting": "[4]", "result": 1.0}, {"measurement": "Cell or Tissue Degeneration", "setting": "[4]", "result": 0.0}, {"measurement": "Encapsulation", "setting": "[4]", "result": 0.0}, {"measurement": "Fatty Infiltrate", "setting": "[4]", "result": 0.0}, {"measurement": "Fibrin", "setting": "[4]", "result": 1.7}, {"measurement": "Fibroblasts", "setting": "[4]", "result": 2.0}, {"measurement": "Fibrosis", "setting": "[4]", "result": 0.0}, {"measurement": "Giant Cells", "setting": "[4]", "result": 2.0}, {"measurement": "Hemorrhage", "setting": "[4]", "result": 1.1}, {"measurement": "Lymphocytes", "setting": "[4]", "result": 1.3}, {"measurement": "Macrophages", "setting": "[4]", "result": 2.4}, {"measurement": "Necrosis", "setting": "[4]", "result": 0.1}, {"measurement": "Neovascularization", "setting": "[4]", "result": 1.0}, {"measurement": "Plasma Cells", "setting": "[4]", "result": 0.0}, {"measurement": "Polymorphonuclear Cells", "setting": "[4]", "result": 1.0}, {"measurement": "Tissue Ingrowth", "setting": "[4]", "result": 2.5}, {"measurement": "Tissue Integration", "setting": "[4]", "result": 2.5}]}
